Measured values reported in patent publication US20230073855A1, “SOFT GEL CAPSULE COMPRISING A SELECTIVE ESTROGEN RECEPTOR MODULATOR” (PHARMATHEN S.A., priority 2018, published 2023).
In brackets after ≈: the same amount, converted by molar mass.

Tests used:
[1] = physchem; details: thermodynamic from solid
Protocol: (§1) In order to investigate drug solubility in SMEDDS, excess amount of drug was added to few mL of each excipient, placed in small bottles and the mixture was vortexed, in room temperature to facilitate solubilization.
Tween 80® and Tween 20® were used as surfactants, Transcutol® along with PG 200 and PEG 600 were used as co-surfactants.

[2] = physchem; details: thermodynamic from solid; remark: listed apart in the source
Protocol: The solubility is calculated by the API quantity dissolved in 5 mL of each excipient.

[3] = physchem; details: oil or lipid, thermodynamic from solid, Dubcare GPE 810 ®/(Tween 80 ®/PEG 600)
Protocol: as §1
The solubility of Dubcare GPR 810® in different oil/(S/CS) was tested. […] The S/CS ration was kept constant at 1/1.

[4] = cited from earlier work

OCCOc1ccc(/C(=C(/CCCl)c2ccccc2)c2ccccc2)cc1 [Ospemifene]
solubility ([1]; organic solvent or mixture, Tween 20 ®/Transcutol ®, ratio S/CS 1:1): 210 mg/mL | solubility ([1]; organic solvent or mixture, Tween 20 ®/Transcutol ®, ratio S/CS 1:2): 240 mg/mL | solubility ([1]; organic solvent or mixture, Tween 20 ®/Transcutol ®, ratio S/CS 2:1): 190 mg/mL | solubility ([1]; surfactant/co-surfactant mixture Tween 20/PG 200, S/CS 1:1, organic solvent or mixture, Tween 20 ®/PG 200, ratio S/CS 1:1): 110 mg/mL | solubility ([1]; surfactant/co-surfactant mixture Tween 20/PG 200, S/CS 1:2, organic solvent or mixture, Tween 20 ®/PG 200, ratio S/CS 1:2): 120 mg/mL | solubility ([1]; surfactant/co-surfactant mixture Tween 20/PG 200, S/CS 2:1, organic solvent or mixture, Tween 20 ®/PG 200, ratio S/CS 2:1): 120 mg/mL | solubility ([1]; surfactant/co-surfactant mixture Tween 20/PG 600, S/CS 1:1, organic solvent or mixture, Tween 20 ®/PG 600, ratio S/CS 1:1): 140 mg/mL | solubility ([1]; surfactant/co-surfactant mixture Tween 20/PG 600, S/CS 1:2, organic solvent or mixture, Tween 20 ®/PG 600, ratio S/CS 1:2): 140 mg/mL | solubility ([1]; surfactant/co-surfactant mixture Tween 20/PG 600, S/CS 2:1, organic solvent or mixture, Tween 20 ®/PG 600, ratio S/CS 2:1): 140 mg/mL | solubility ([1]; surfactant/co-surfactant mixture Tween 80/PEG 600, S/CS 1:1, organic solvent or mixture, Tween 80 ®/PEG 600, ratio S/CS 1:1): 140 mg/mL | solubility ([1]; surfactant/co-surfactant mixture Tween 80/PEG 600, S/CS 1:2, organic solvent or mixture, Tween 80 ®/PEG 600, ratio S/CS 1:2): 120 mg/mL | solubility ([1]; surfactant/co-surfactant mixture Tween 80/PEG 600, S/CS 2:1, organic solvent or mixture, Tween 80 ®/PEG 600, ratio S/CS 2:1): 140 mg/mL | solubility ([2]; Castor oil #1 (neat excipient), oil or lipid, in Castor oil #1, room temperature): 60 mg/mL (≈ 158 mM) | solubility ([2]; Castor oil #2 (neat excipient), oil or lipid, in Castor oil #2, room temperature): 60 mg/mL (≈ 158 mM) | solubility ([2]; Dubcare GPE 810 (neat excipient), organic solvent or mixture, in Dubcare GPE 810 ®, room temperature): 180 mg/mL (≈ 475 mM) | solubility ([2]; Ethyl Oleate (neat excipient), oil or lipid, in Ethyl Oleate, room temperature): 20 mg/mL (≈ 52.8 mM) | solubility ([2]; Isopropyl myristate (neat excipient), oil or lipid, in Isopropyl myristate, room temperature): 150 mg/mL (≈ 396 mM) | solubility ([2]; Labrafac Lipophile (neat excipient), oil or lipid, in Labrafac Lipophile ®, room temperature): 100 mg/mL (≈ 264 mM) | solubility ([2]; Miglyol 812 (neat excipient), oil or lipid, in Miglyol 812, room temperature): 60 mg/mL (≈ 158 mM) | solubility ([2]; Oleic acid (neat excipient), oil or lipid, in Oleic acid, room temperature): 10 mg/mL (≈ 26.4 mM) | solubility ([2]; Propylene glycol (neat excipient), organic solvent or mixture, in Propylene glycol, room temperature): 50 mg/mL (≈ 132 mM) | solubility ([2]; Sesame oil (neat excipient), oil or lipid, in Sesame oil, room temperature): 60 mg/mL (≈ 158 mM) | solubility ([2]; Transcutol (neat excipient), organic solvent or mixture, in Transcutol ®, room temperature): 280 mg/mL (≈ 739 mM) | solubility ([2]; Tween 20 (neat excipient), organic solvent or mixture, in Tween 20 ®, room temperature): 150 mg/mL (≈ 396 mM) | solubility ([2]; Tween 80 (neat excipient), organic solvent or mixture, in Tween 80 ®, room temperature): 100 mg/mL (≈ 264 mM) | solubility ([2]; Tyloxapol (neat excipient), organic solvent or mixture, in Tyloxapol, room temperature): 140 mg/mL (≈ 369 mM) | solubility ([2]; organic solvent or mixture, in Kolliphpor ® RH40, room temperature): 180 mg/mL (≈ 475 mM) | solubility ([2]; organic solvent or mixture, in PG 200, room temperature): 100 mg/mL (≈ 264 mM) | solubility ([2]; organic solvent or mixture, in PG 600, room temperature): 160 mg/mL (≈ 422 mM) | solubility ([3]; ratio oil/(S/CS) 1:9, S/CS 1/1): 160 mg/mL | solubility ([3]; ratio oil/(S/CS) 2:8, S/CS 1/1): 150 mg/mL | solubility ([3]; ratio oil/(S/CS) 3:7, S/CS 1/1): 150 mg/mL | solubility ([3]; ratio oil/(S/CS) 7:3, S/CS 1/1): 80 mg/mL | solubility ([3]; ratio oil/(S/CS) 8:2, S/CS 1/1): 60 mg/mL | Time to peak median serum concentration ([4]; fasting postmenopausal women): approximately two | Increase of bioavailability with food intake ([4]; with food intake, EP1713458): two- to three
